Source: the NIST ThermoML archive (doi:10.1021/je800463k)

Experiment: mn = molality of the nth substance listed, in mol/kg
Conditions: 101 kPa, Liquid; for mass density: Pycnometric method; for electrical conductivity: Frequency=0.001 MHz, Alternating current cell with electrodes; for speed of sound: Frequency=2 MHz

[Mg+2].[O-][Cl+3]([O-])([O-])[O-].[O-][Cl+3]([O-])([O-])[O-] [magnesium perchlorate] + CO
Conditions | electrical conductivity [S/m] | mass density [kg/m3] | speed of sound [m/s] | viscosity [mPa·s]
301.65 K, m1 = 0.0925 | – | 796.87 | – | –
302.7 K, m1 = 0.3228 | – | 824.56 | – | –
302.75 K, m1 = 0.2872 | – | 820.44 | – | –
302.75 K, m1 = 2 | – | 1006.5 | – | –
302.9 K, m1 = 0.078 | – | 794.53 | – | –
303.05 K, m1 = 0.1673 | – | 805.22 | – | –
303.15 K, m1 = 0.0542 | 0.3785 | – | 1094.8 | 0.5431
303.15 K, m1 = 0.078 | 0.5625 | – | 1101.6 | –
303.15 K, m1 = 0.0925 | 0.6223 | – | 1104.6 | 0.5669
303.15 K, m1 = 0.1673 | 0.9485 | – | 1114 | 0.6084
303.15 K, m1 = 0.2872 | 1.407 | – | 1129.8 | 0.684
303.15 K, m1 = 0.3228 | 1.534 | – | 1133.5 | 0.7005
303.15 K, m1 = 0.4313 | 1.913 | – | 1147 | 0.7937
303.15 K, m1 = 0.6444 | 2.541 | – | 1173.3 | 0.9348
303.15 K, m1 = 1.059 | 3.367 | – | 1217 | 1.323
303.15 K, m1 = 1.395 | 3.746 | – | 1253.3 | 1.732
303.15 K, m1 = 1.717 | 3.979 | – | 1277.6 | 1.99
303.15 K, m1 = 2 | 4.1 | – | 1301.6 | 2.362
303.5 K, m1 = 0.4313 | – | 838.73 | – | –
303.55 K, m1 = 1.059 | – | 918.43 | – | –
303.55 K, m1 = 1.717 | – | 980.32 | – | –
303.9 K, m1 = 0.0542 | – | 788.92 | – | –
304.2 K, m1 = 0.0925 | – | 794.46 | – | –
304.55 K, m1 = 1.395 | – | 955.29 | – | –
304.85 K, m1 = 0.6444 | – | 864.55 | – | –
305.45 K, m1 = 0.2872 | – | 817.88 | – | –
305.5 K, m1 = 0.078 | – | 792.01 | – | –
305.5 K, m1 = 0.3228 | – | 821.98 | – | –
305.7 K, m1 = 0.1673 | – | 802.67 | – | –
305.75 K, m1 = 1.059 | – | 916.49 | – | –
305.95 K, m1 = 0.6444 | – | 863.6 | – | –
306 K, m1 = 1.717 | – | 978.23 | – | –
306.55 K, m1 = 0.4313 | – | 836.04 | – | –
306.6 K, m1 = 0.0542 | – | 786.39 | – | –
306.65 K, m1 = 2 | – | 1003.3 | – | –
306.8 K, m1 = 0.0925 | – | 791.94 | – | –
306.95 K, m1 = 1.395 | – | 953.22 | – | –
307.15 K, m1 = 0.078 | – | 790.37 | – | –
307.25 K, m1 = 0.2872 | – | 816.19 | – | –
307.3 K, m1 = 0.3228 | – | 820.29 | – | –
307.35 K, m1 = 0.1673 | – | 801.01 | – | –
308 K, m1 = 1.059 | – | 914.51 | – | –
308.05 K, m1 = 0.6444 | – | 861.75 | – | –
308.35 K, m1 = 0.0542 | – | 784.7 | – | –
308.45 K, m1 = 1.717 | – | 976.24 | – | –
308.5 K, m1 = 0.4313 | – | 834.26 | – | –
309.25 K, m1 = 2 | – | 1001.1 | – | –
309.3 K, m1 = 1.395 | – | 951.18 | – | –
309.35 K, m1 = 0.0925 | – | 789.49 | – | –
309.7 K, m1 = 0.078 | – | 787.95 | – | –
309.9 K, m1 = 0.2872 | – | 813.69 | – | –
309.95 K, m1 = 0.3228 | – | 817.77 | – | –
310.85 K, m1 = 1.717 | – | 974.13 | – | –
311.05 K, m1 = 0.0542 | – | 782.22 | – | –
311.05 K, m1 = 0.0925 | – | 787.88 | – | –
311.15 K, m1 = 0.6444 | – | 859.02 | – | –
311.4 K, m1 = 0.4313 | – | 831.61 | – | –
311.45 K, m1 = 1.059 | – | 911.67 | – | –
311.55 K, m1 = 1.395 | – | 949.18 | – | –
311.75 K, m1 = 0.1673 | – | 796.89 | – | –
311.75 K, m1 = 2 | – | 999.04 | – | –
312.55 K, m1 = 0.2872 | – | 811.13 | – | –
312.6 K, m1 = 0.3228 | – | 815.21 | – | –
313.15 K, m1 = 0.0542 | 0.4141 | – | 1062.7 | 0.4735
313.15 K, m1 = 0.078 | 0.6138 | – | 1069.7 | –
313.15 K, m1 = 0.0925 | 0.6801 | – | 1072.7 | 0.4938
313.15 K, m1 = 0.1673 | 1.04 | – | 1082.2 | 0.5284
313.15 K, m1 = 0.2872 | 1.549 | – | 1098.9 | 0.5874
313.15 K, m1 = 0.3228 | 1.691 | – | 1102.5 | 0.6082
313.15 K, m1 = 0.4313 | 2.119 | – | 1115.5 | 0.6824
313.15 K, m1 = 0.6444 | 2.844 | – | 1141.6 | 0.7966
313.15 K, m1 = 1.059 | 3.813 | – | 1185.5 | 1.119
313.15 K, m1 = 1.395 | 4.297 | – | 1224.6 | 1.445
313.15 K, m1 = 1.717 | 4.592 | – | 1249.9 | 1.656
313.15 K, m1 = 2 | 4.75 | – | 1273.8 | 1.945
313.25 K, m1 = 0.4313 | – | 829.89 | – | –
313.25 K, m1 = 1.717 | – | 972.12 | – | –
313.35 K, m1 = 0.1673 | – | 795.24 | – | –
313.6 K, m1 = 0.0542 | – | 779.81 | – | –
313.75 K, m1 = 1.395 | – | 947.21 | – | –
314.05 K, m1 = 0.6444 | – | 856.37 | – | –
314.15 K, m1 = 2 | – | 996.96 | – | –
314.65 K, m1 = 1.059 | – | 908.74 | – | –
315.1 K, m1 = 0.2872 | – | 808.66 | – | –
315.2 K, m1 = 0.3228 | – | 812.71 | – | –
315.8 K, m1 = 0.1673 | – | 792.81 | – | –
315.85 K, m1 = 0.6444 | – | 854.66 | – | –
315.9 K, m1 = 1.395 | – | 945.34 | – | –
316 K, m1 = 0.4313 | – | 827.39 | – | –
316.1 K, m1 = 0.0542 | – | 777.42 | – | –
316.75 K, m1 = 1.717 | – | 969.14 | – | –
317.85 K, m1 = 1.059 | – | 906.01 | – | –
317.9 K, m1 = 2 | – | 993.97 | – | –
318.5 K, m1 = 0.0542 | – | 774.98 | – | –
318.5 K, m1 = 0.6444 | – | 851.96 | – | –
318.65 K, m1 = 0.4313 | – | 824.78 | – | –
319 K, m1 = 1.717 | – | 967.11 | – | –
319.3 K, m1 = 1.395 | – | 942.34 | – | –
320.05 K, m1 = 0.0542 | – | 773.35 | – | –
320.15 K, m1 = 2 | – | 991.84 | – | –
320.2 K, m1 = 0.6444 | – | 850.2 | – | –
320.65 K, m1 = 1.059 | – | 903.14 | – | –
321.15 K, m1 = 0.4313 | – | 822.18 | – | –
322.3 K, m1 = 2 | – | 989.79 | – | –
322.35 K, m1 = 1.717 | – | 964.07 | – | –
322.45 K, m1 = 1.059 | – | 901.27 | – | –
322.5 K, m1 = 1.395 | – | 939.42 | – | –
